Measurements published in patent US6652479B2, “Method and apparatus for transcutaneous infusion of carbon dioxide for local relief of pain and other ailments” (Capnia, Inc., priority 2000, dated 2003).

How the values were obtained:
[1] = system: muscular-skeletal pain conditions (cervico-cranial syndrome, cervico-brachial syndrome, lumbalgia); details: cited from earlier work
[2] = in vitro rate of CO2 absorption by water-soaked paper towel (funnel / oil bolus apparatus); type: physicochemical; details: 80-cm^2 area test surface, several tests
Method: To determine the inherent rate of absorption and diffusion of CO2 in a “passive” aqueous medium a preliminary in vitro experiment was performed. The apparatus and method employed for measuring the rate of CO2 absorption by a surface is illustrated in FIG. 1. The device was placed on a table top 150, and comprised a source of CO2 in the form of a cylinder 101 and a flow regulator 110, including a pressure regulator 112 and flow meter 113. Polyethylene tubing 115 of approximately 0.2 cm^2 lumen connected the cylinder 101 to a glass funnel 120 having a maximum area of 80 cm^2. An additional length of tubing 125 was used for measurement of changes in gas volume. This gas volume measurement means used in the experiment could be eliminated in a device intended to administer CO2 to a patient's skin surface. The entire system was purged of air by prolonged CO2 flow. The additional length of tubing 125 was purged first, then a bolus of low-volatility (forepump) oil 130 was inserted into its open end and the end plugged. […]
Next, the funnel was placed on test surface 140 of a 0.4-mm thick water-soaked paper towel having about the same thickness as skin. […] The observed initial rate of absorption determined from several such tests fell in the range 0.6-1.2 ml/min, and saturation occurred at 4-10 ml, for the 80-cm^2 area test surface. […]

allergic rhinitis attack = assay: treatment of allergic rhinitis by carbonated water nasal spray; type: in vivo, human; details: carbonated water spray and gaseous CO2 infusion used alternately over a day, one subject
Text: Because of the observed similarity of the physiological effects of gaseous CO2 and a […] solution (carbonated water) applied to the skin, the inventors believed that a […] solution might be effective for treatment of upper respiratory indications for which infusion of gaseous CO2 is effective. With reference to FIG. 5, to test this hypothesis, a 70-ml commercially marketed plastic “squeeze” bottle 510 for dispensing a physiological saline spray was 3⁄4 filled with fresh effervescing carbonated water. The carbonated water spray was then sprayed into the nose of a subject 520 who was suffering a mild allergic rhinitis attack. […] During the course of a day as allergic rhinitis attacks reoccurred, the carbonated water spray and gaseous CO2 infusion were used alternately and their relative effectiveness assessed. […] The disagreeable aspects cited were the discomfort associated with a liquid being sprayed up the nose and the messiness of the effluent liquid from the nose after the spray. Nevertheless, the carbonated nasal spray is a distinct alternative for treatment of the upper respiratory distress indications, and shares many of the advantages of a gaseous CO2 infusion treatment including effectiveness, ease of use, rapid relief on demand, unlimited dose, low cost, and freedom from aftereffects and other contraindications associated with the use of drugs. […]

[3] = system: skin on the right anterior thigh; assay: rate of transcutaneous absorption of gaseous CO2 into a human body (funnel on wet skin); type: in vivo
Method: To determine the inherent rate of absorption and diffusion of CO2 in a “passive” aqueous medium a preliminary in vitro experiment was performed. The apparatus and method employed for measuring the rate of CO2 absorption by a surface is illustrated in FIG. 1. The device was placed on a table top 150, and comprised a source of CO2 in the form of a cylinder 101 and a flow regulator 110, including a pressure regulator 112 and flow meter 113. Polyethylene tubing 115 of approximately 0.2 cm^2 lumen connected the cylinder 101 to a glass funnel 120 having a maximum area of 80 cm^2. An additional length of tubing 125 was used for measurement of changes in gas volume. This gas volume measurement means used in the experiment could be eliminated in a device intended to administer CO2 to a patient's skin surface. The entire system was purged of air by prolonged CO2 flow. The additional length of tubing 125 was purged first, then a bolus of low-volatility (forepump) oil 130 was inserted into its open end and the end plugged. The funnel 120 was then purged with its open end resting on a portion of the selected test surface 140 immediately adjacent to the portion to be tested, and with the purge flow escaping at its edge. At zero time the purge flow was terminated, the plug in the tube 125 end was removed and the funnel was slid onto the test portion of the surface without breaking the seal between the funnel edge and the wet surface. The displacement of the oil bolus 130 within the 0.20 cm^2 lumen of the tube 125 was then observed as CO2 gas was removed from the closed system via absorption in the surface 140; i.e., each cm of displacement corresponded to absorption of 0.20 cc of gas by 80 cm^2 of test surface.
An area of skin on the right anterior thigh sufficiently large for two positions of the funnel 120 applicator was washed thoroughly and soaked with water for fifteen minutes. The funnel 120 was purged of air by prolonged CO2 flow (for about 10 minutes) while seated on the wet skin in the upper thigh position 160, and then was slid to the lower thigh position 170 at zero time. […] In other words, it appeared that less than <0.1 ml of gas was absorbed. […] Therefore, the inventors concluded that some quantity of CO2, sufficient to cause the observed vascular effects, must have diffused into the skin. Therefore, the inventors continued with their experiments to determine if a transcutaneous application of CO2 would reduce local pain.

[4] = after subcutaneous injection of 100-200 ml CO2 gas
[5] = of 335 patients treated, 100-200 ml CO2 gas injected under the skin, 10-15 injections over 2-5 weeks

O=C=O [CO2, carbon dioxide]
diameter of gas emphysemum at injection site [1, 4]: ~8 cm
skin reaction at the injection site [1, 4]: mild hyperemia
time for gas emphysemum and hyperemia to disappear after the injection [1, 4]: 3 to 5 min
patients improved with some remaining distress [1, 5]: 157
patients who became difficulty-free or were substantially improved [1, 5]: 171
patients with no improvement [1, 5]: 7
number of treatments after which improvement of the indicated disorder occurred ([1]; subcutaneous injection of 100-200 ml CO2 gas daily or twice-weekly): 4-5 treatments
absorbed gas volume at saturation [2]: 4 to 10 mL
initial rate of absorption of gaseous CO2 [2]: 0.6 to 1.2 mL/min
relative effectiveness for relief and suppression of allergic rhinitis symptoms (allergic rhinitis attack): equally effective
skin reaction over region in contact with CO2 ([3]; after about 10 minutes contact with gaseous CO2): a hyperemia was observed
aftereffects ([3]; gaseous CO2 on wet skin): no observed aftereffects
time for reddening to develop in contact with CO2 ([3]; gaseous CO2 on wet skin): three to five
time for reddening to subside after removal of the CO2 ([3]; gaseous CO2 on wet skin): a similar period
gas absorbed by the skin ([3]; wet skin, 80 cm^2 funnel, about 10 minutes, several tests): < 0.1 mL
